{"source": "patent US20100121052A1", "about": "“Novel compounds for treating proliferative diseases” (priority 2008, published 2010)", "origin": "cited, not measured here", "system": "prostate cancer cell lines", "conditions": "background statement"}
{"smiles": "CC(=O)O[C@@H]1[C@@H](OC(C)=O)[C@@H](O)[C@H](Oc2c(-c3ccc(O)cc3)oc3cc(O)cc(O)c3c2=O)O[C@H]1C", "note": "[SL0101]", "values": [{"measurement": "inhibition of proliferation of multiple prostate cancer cell lines", "value": "inhibit the proliferation"}]}
